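The compound was tested at five concentrations on cells cultured in 96-well plates, with a 48-hour exposure period. TGI: concentration producing complete growth inhibition.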 Where a SMILES comes first, the peptide text is derived from it. Bridges are numbered along the chain shown (N, C = ends). [ ]: non-standard residue; d: D form. The star is where a group is joined. PhAc = O=C(Cc1ccccc1)*
Assays:
Experiment in all cases: growth of human tumour cells (NCI), 48 h
[1] = test system: NCI-H460 lung
[2] = test system: MDA-N
[3] = test system: HS 578T breast
[4] = test system: DU-145 prostate
[5] = test system: UACC-62 melanoma
[6] = test system: CAKI-1 renal
[7] = test system: A498 renal
[8] = test system: HCT-116 colon
[9] = test system: OVCAR-3 ovarian
[10] = test system: SK-MEL-28 melanoma
[11] = test system: CCRF-CEM leukemia
[12] = test system: NCI-H23 lung
[13] = test system: HOP-62 NSCLC
[14] = test system: TK-10 renal
[15] = test system: SN12C renal
[16] = test system: OVCAR-5 ovarian
[17] = test system: SF-268 CNS
[18] = test system: T-47D breast
[19] = test system: IGROV1 ovarian
[20] = test system: EKVX NSCLC
[21] = test system: OVCAR-8 ovarian
[22] = test system: SNB-19 CNS
[23] = test system: SK-OV-3 ovarian
[24] = test system: SF-539 CNS
[25] = test system: A549 NSCLC
[26] = test system: HT29 colon
[27] = test system: SF-295 CNS
[28] = test system: COLO 205 colon
[29] = test system: HL-60(TB) leukemia
[30] = test system: MOLT-4 leukemia
[31] = test system: 786-0 renal
[32] = test system: HCC-2998 colon
[33] = test system: SR leukemia
[34] = test system: OVCAR-4 ovarian
[35] = test system: SK-MEL-2 melanoma
[36] = test system: SK-MEL-5 melanoma
[37] = test system: KM12 colon
[38] = test system: MCF7 breast
[39] = test system: HCT-15 colon
[40] = test system: UACC-257 melanoma
[41] = test system: MDA-MB-231 breast
[42] = test system: SW-620 colon
[43] = test system: LOX IMVI melanoma
[44] = test system: M14 melanoma
[45] = test system: ACHN renal
[46] = test system: RXF 393 renal
[47] = test system: HOP-92 NSCLC
[48] = test system: MALME-3M melanoma
[49] = test system: MDA-MB-435
[50] = test system: NCI/ADR-RES ovarian
[51] = test system: PC-3 prostate

Measured: TGI

O=C(Cc1ccccc1)N[C@@H]1COC(=O)[C@@H]2CCCN2C(=O)[C@@H]2CCCN2C1=O (PhAc-[dS]-Pro-Pro; ester 1-C)
> 100 µM: [1] | [2] | [3] | [4] | [5] | [6] | [7] | [8] | [9] | [10] | [11] | [12] | [13] | [14] | [15] | [16] | [17] | [18] | [19] | [20] | [21] | [22] | [23] | [24] | [25] | [26] | [27] | [28] | [29] | [30] | [31] | [32] | [33] | [34] | [35] | [36] | [37] | [38] | [39] | [40] | [41] | [42] | [43] | [44] | [45] | [46] | [47] | [48] | [49] | [50] | [51]

Reference: PubChem BioAssay (NCI)
